Test results as given in patent US8563730B2, “Pyrazole and fused pyrazole glucokinase activators” (Takeda San Diego, Inc., priority 2008, dated 2013).
Like-named read-outs stand apart in the source and are kept apart here.

Molecular target: T1, GK (glucokinase, residues 12-465) (Homo sapiens, UniProt P35557)
T1 construct: I.D. No. 1 corresponds to residues 12-465 of glucokinase; made in house; host or cells: DH10b-T1r E. coli
T1 sequence (P35557 with tags, fused parts or gaps isoform P35557-2): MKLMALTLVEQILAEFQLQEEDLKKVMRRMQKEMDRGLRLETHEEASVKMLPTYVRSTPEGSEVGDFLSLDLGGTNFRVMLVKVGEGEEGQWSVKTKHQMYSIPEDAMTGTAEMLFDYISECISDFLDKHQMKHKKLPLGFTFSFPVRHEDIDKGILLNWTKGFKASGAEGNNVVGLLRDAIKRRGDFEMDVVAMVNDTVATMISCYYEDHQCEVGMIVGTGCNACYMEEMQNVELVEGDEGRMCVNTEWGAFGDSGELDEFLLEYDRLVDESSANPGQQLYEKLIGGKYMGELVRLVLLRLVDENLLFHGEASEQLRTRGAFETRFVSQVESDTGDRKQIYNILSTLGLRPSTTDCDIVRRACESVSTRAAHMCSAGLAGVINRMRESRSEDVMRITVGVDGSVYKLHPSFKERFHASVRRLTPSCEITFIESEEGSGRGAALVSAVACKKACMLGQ
Assay: enzymatic glucokinase activity assay (ATP consumption, KinaseGlo luminescence)
Type: biochemical
Conditions: 5 μM ATP, 5 mM Glucose, reported as bins; for EC50: read-out: pKact
Method in brief: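 E. coli-expressed recombinant GK purified by two anion-exchange steps. Reaction in 25 mM Hepes pH 7.2, 10 mM MgCl2, 1 mM DTT, 5 μM ATP, 5 mM glucose, 2% DMSO, 60 min at room temperature. ATP consumption quantified by KinaseGlo luminescence; pKact and % ACTmax derived by non-linear curve fitting.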

[1] = Kact = concentration that displays 50% of the maximal increase in GK activity, 60 min, room temperature
[2] = calculated maximal gain in GK enzyme activity at a saturating concentration of the compound, read-out: % ACTmax
[3] = read-out: % ACTmax, calculated maximal gain in GK enzyme activity at a saturating concentration of the compound

SMILES	EC50 [1] [nM]	Emax [2] [%]	Emax [3] [%]	pKact [1]	% ACTmax (calculated maximal gain in GK enzyme activity at a saturating concentration of the compound)
N#Cc1cc(S(=O)(=O)C2CC2)c2cnn(C(CC3CCOCC3)C(=O)Nc3ncc(F)s3)c2c1 (stereo not shown) [Compound 120, 2-(6-cyano-4-(cyclopropylsulfonyl)-1H-indazol-1-yl)-N-(5-fluorothiazol-2-yl)-3-(tetrahydro-2H-pyran-4-yl)propanamide]	≤ 316	90 to 100	–	–	–
CC(C)(C)S(=O)(=O)c1cnn(C(CC2CCOCC2)C(=O)Nc2ncc(F)s2)c1 (stereo not shown) [Compound 49, 2-(4-(tert-butylsulfonyl)-1H-pyrazol-1-yl)-N-(5-fluorothiazol-2-yl)-3-(tetrahydro-2H-pyran-4-yl)propanamide]	3980 to 12600	90 to 100	–	–	–
O=C(Nc1cnccn1)C(CC1CCOCC1)n1ncc2c(S(=O)(=O)C3CC3)ccnc21 (stereo not shown) [Compound 97, 2-(4-(cyclopropylsulfonyl)-1H-pyrazolo[3,4-b]pyridin-1-yl)-N-(pyrazin-2-yl)-3-(tetrahydro-2H-pyran-4-yl)propanamide]	398 to 1260	106 to 110	–	–	–
CC(C)(C)S(=O)(=O)c1cnn([C@@H](CC2CCOCC2)C(=O)Nc2ncc(F)s2)c1 [Compound 53, (S)-2-(4-(tert-butylsulfonyl)-1H-pyrazol-1-yl)-N-(5-fluorothiazol-2-yl)-3-(tetrahydro-2H-pyran-4-yl)propanamide]	≥ 15800	≤ 90	–	–	–
COc1ccc2nc(NC(=O)[C@H](CC3CCOCC3)n3ccc(S(=O)(=O)C4CC4)n3)sc2n1 [Compound 2, (S)-2-(3-(cyclopropylsulfonyl)-1H-pyrazol-1-yl)-N-(5-methoxythiazolo[5,4-b]pyridin-2-yl)-3-(tetrahydro-2H-pyran-4-yl)propanamide]	≥ 15800	≤ 90	–	–	–
Cn1ccc(NC(=O)C(CC2CCOCC2)n2ncc3c(S(=O)(=O)C4CC4)c(F)ccc32)n1 (stereo not shown) [Compound 152, 2-(4-(cyclopropylsulfonyl)-5-fluoro-1H-indazol-1-yl)-N-(1-methyl-1H-pyrazol-3-yl)-3-(tetrahydro-2H-pyran-4-yl)propanamide]	≤ 316	106 to 110	–	–	–
O=C(Nc1ncc(Cl)s1)[C@@H](CC1CCCC1)n1cc(S(=O)(=O)C2CC2)cn1 [Compound 38, (R)-N-(5-chlorothiazol-2-yl)-3-cyclopentyl-2-(4-(cyclopropylsulfonyl)-1H-pyrazol-1-yl)propanamide]	≥ 15800	≥ 111	–	–	–
COc1ccc2c(cnn2[C@@H](CC2CCOCC2)C(=O)Nc2ccn(C)n2)c1S(=O)(=O)C1CC1 [Compound 109, (S)-2-(4-(cyclopropylsulfonyl)-5-methoxy-1H-indazol-1-yl)-N-(1-methyl-1H-pyrazol-3-yl)-3-(tetrahydro-2H-pyran-4-yl)propanamide]	≤ 316	101 to 105	–	–	–
O=C(Nc1ncc(Cl)s1)C(CC1CCCC1)n1cc(S(=O)(=O)C2CC2)cn1 (stereo not shown) [Compound 33, N-(5-chlorothiazol-2-yl)-3-cyclopentyl-2-(4-(cyclopropylsulfonyl)-1H-pyrazol-1-yl)propanamide]	1580 to 3160	≥ 111	–	–	–
O=C(Nc1ncc(Cl)s1)C(CC1CCOCC1)n1cc(S(=O)(=O)C2CCCC2)cn1 (stereo not shown) [Compound 5, N-(5-chlorothiazol-2-yl)-2-(4-(cyclopentylsulfonyl)-1H-pyrazol-1-yl)-3-(tetrahydro-2H-pyran-4-yl)propanamide]	398 to 1260	–	≥ 111	–	–
O=C(Nc1ncc(F)s1)C(CC1CCOCC1)n1ncc2c(S(=O)(=O)C3CC3)ccc(Cl)c21 (stereo not shown) [Compound 23, 2-(7-chloro-4-(cyclopropylsulfonyl)-1H-indazol-1-yl)-N-(5-flourothiazol-2-yl)-3-(tetrahydro-2H-pyran-4-yl)propanamide]	–	–	–	≧6.5	≧111%
N#Cc1cc(S(=O)(=O)C2CC2)c2cnn(C(CC3CCOCC3)C(=O)Nc3cnccn3)c2c1 (stereo not shown) [Compound 100, 2-(6-cyano-4-(cyclopropylsulfonyl)-1H-indazol-1-yl)-N-(pyrazin-2-yl)-3-(tetrahydro-2H-pyran-4-yl)propanamide]	398 to 1260	≤ 90	–	–	–
O=C(Nc1cnccn1)C(CC1CCOCC1)n1ncc2c(S(=O)(=O)C3CC3)cccc21 (stereo not shown) [Compound 65, 2-(4-(cyclopropylsulfonyl)-1H-indazol-1-yl)-N-(pyrazin-2-yl)-3-(tetrahydro-2H-pyran-4-yl)propanamide]	398 to 1260	90 to 100	–	–	–
O=C(Nc1ncc(F)s1)C(CC1CCOCC1)n1ncc2c(S(=O)(=O)C3CC3)c(OC(F)F)ccc21 (stereo not shown) [Compound 87, 2-(4-(cyclopropylsulfonyl)-5-(difluoromethoxy)-1H-indazol-1-yl)-N-(5-fluorothiazol-2-yl)-3-(tetrahydro-2H-pyran-4-yl)propanamide]	1580 to 3160	90 to 100	–	–	–
O=C(Nc1ncc(F)s1)C(CC1CCOCC1)n1cc(S(=O)(=O)C2CC2)cn1 (stereo not shown) [Compound 28, 2-(4-(cyclopropylsulfonyl)-1H-pyrazol-1-yl)-N-(5-fluorothiazol-2-yl)-3-(tetrahydro-2H-pyran-4-yl)propanamide]	3980 to 12600	≥ 111	–	–	–
O=C(Nc1ncc(F)s1)C(CC1CCOCC1)n1ncc2c(S(=O)(=O)C3CC3)c(Br)ccc21 (stereo not shown) [Compound 150, 2-(5-bromo-4-(cyclopropylsulfonyl)-1H-indazol-1-yl)-N-(5-fluorothiazol-2-yl)-3-(tetrahydro-2H-pyran-4-yl)propanamide]	398 to 1260	≥ 111	–	–	–
O=C(Nc1ncc(F)s1)[C@H](CC1CCOCC1)n1ncc2c(S(=O)(=O)C3CC3)cc(Cl)cc21 [Compound 141, (S)-2-(6-chloro-4-(cyclopropylsulfonyl)-1H-indazol-1-yl)-N-(5-fluorothiazol-2-yl)-3-(tetrahydro-2H-pyran-4-yl)propanamide]	≤ 316	90 to 100	–	–	–
COc1ccc2nc(NC(=O)C(CC3CCOCC3)n3ccc(S(=O)(=O)C4CC4)n3)sc2n1 (stereo not shown) [Compound 1, 2-(3-(cyclopropylsulfonyl)-1H-pyrazol-1-yl)-N-(5-methoxythiazolo[5,4-b]pyridin-2-yl)-3-(tetrahydro-2H-pyran-4-yl)propanamide]	≥ 15800	–	≤ 90	–	–
Cn1ccc(NC(=O)C(CC2CCOCC2)n2ncc3c(S(=O)(=O)C4CC4)ccnc32)n1 (stereo not shown) [Compound 95, 2-(4-(cyclopropylsulfonyl)-1H-pyrazolo[3,4-b]pyridin-1-yl)-N-(1-methyl-1H-pyrazol-3-yl)-3-(tetrahydro-2H-pyran-4-yl)propanamide]	1580 to 3160	101 to 105	–	–	–
O=C(Nc1ncc(F)s1)C(CC1CCOCC1)n1ncc2c(S(=O)(=O)C3CC3)cncc21 (stereo not shown) [Compound 13, 2-(4-(cyclopropylsulfonyl)-1H-pyrazolo[3,4-c]pyridin-1-yl)-N-(5-fluorothiazol-2-yl)-3-(tetrahydro-2H-pyran-4-yl)propanamide]	≤ 316	–	106 to 110	–	–
O=C(Nc1ncc(F)s1)C(CC1CCOCC1)n1cc(S(=O)(=O)c2ccc(Cl)cc2)cn1 (stereo not shown) [Compound 29, 2-(4-(4-chlorophenylsulfonyl)-1H-pyrazol-1-yl)-N-(5-fluorothiazol-2-yl)-3-(tetrahydro-2H-pyran-4-yl)propanamide]	398 to 1260	≥ 111	–	–	–
O=C(Nc1ncc(F)s1)[C@H](CC1CCOCC1)n1cc(S(=O)(=O)C2CCCC2)cn1 [Compound 44, (S)-2-(4-(cyclopentylsulfonyl)-1H-pyrazol-1-yl)-N-(5-fluorothiazol-2-yl)-3-(tetrahydro-2H-pyran-4-yl)propanamide]	398 to 1260	≥ 111	–	–	–
O=C(Nc1ncc(Cl)s1)C(CC1CCOCC1)n1cc2cc(S(=O)(=O)C3CC3)ccc2n1 (stereo not shown) [Compound 51, N-(5-chlorothiazol-2-yl)-2-(5-(cyclopropylsulfonyl)-2H-indazol-2-yl)-3-(tetrahydro-2H-pyran-4-yl)propanamide]	398 to 1260	≥ 111	–	–	–
